Data reported in PubChem BioAssay (NCI).
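Exposure lasted 48 hours, with cells grown in 96-well plates and compounds tested at five concentrations. The concentration for 50% growth inhibition is given as GI50. At the TGI there is no net growth.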

Assays:
Experiment in all cases: inhibition of tumour cell growth, NCI panel, 48 h
[1] = system: SK-MEL-2 melanoma
[2] = system: M14 melanoma
[3] = system: SR leukemia
[4] = system: SK-OV-3 ovarian
[5] = system: MALME-3M melanoma
[6] = system: SK-MEL-28 melanoma
[7] = system: UACC-62 melanoma
[8] = system: 786-0 renal
[9] = system: DU-145 prostate
[10] = system: COLO 205 colon
[11] = system: HOP-92 NSCLC
[12] = system: MOLT-4 leukemia
[13] = system: SF-268 CNS
[14] = system: UO-31 renal
[15] = system: SN12C renal
[16] = system: SNB-75 CNS
[17] = system: KM12 colon
[18] = system: NCI-H522 lung
[19] = system: SF-539 CNS
[20] = system: OVCAR-5 ovarian
[21] = system: HCT-15 colon
[22] = system: OVCAR-4 ovarian
[23] = system: A549 NSCLC
[24] = system: SNB-19 CNS
[25] = system: MCF7 breast
[26] = system: OVCAR-8 ovarian
[27] = system: SW-620 colon
[28] = system: OVCAR-3 ovarian
[29] = system: MDA-MB-435
[30] = system: NCI-H23 lung
[31] = system: K-562 leukemia
[32] = system: BT-549 breast
[33] = system: MDA-MB-231 breast
[34] = system: T-47D breast
[35] = system: NCI-H460 lung
[36] = system: HCC-2998 colon
[37] = system: CAKI-1 renal
[38] = system: NCI/ADR-RES ovarian
[39] = system: HS 578T breast
[40] = system: A498 renal
[41] = system: HT29 colon
[42] = system: PC-3 prostate
[43] = system: LOX IMVI melanoma
[44] = system: ACHN renal
[45] = system: HOP-62 NSCLC
[46] = system: SK-MEL-5 melanoma
[47] = system: SF-295 CNS
[48] = system: HCT-116 colon
[49] = system: CCRF-CEM leukemia
[50] = system: IGROV1 ovarian
[51] = system: U251 CNS
[52] = system: HL-60(TB) leukemia
[53] = system: UACC-257 melanoma
[54] = system: RXF 393 renal
[55] = system: EKVX NSCLC
[56] = system: TK-10 renal
[57] = system: NCI-H226 lung

## COc1ccc2c(c1)CCc1[nH]nc(-c3cc(OC)c(OC)c(OC)c3)c1-2
[1]
  GI50: < 0.01 µM
  TGI: 26.8 µM
[2]
  GI50: < 0.01 µM
  TGI: 10.9 µM
[3]
  GI50: < 0.01 µM
  TGI: 22.9 µM
[4]
  GI50: < 0.01 µM
  TGI: < 0.01 µM
[5]
  GI50: < 0.01 µM
  TGI: 33.9 µM
[6]
  GI50: 1.62 µM
  TGI: 21.7 µM
[7]
  GI50: < 0.01 µM
  TGI: 13 µM
[8]
  GI50: < 0.01 µM
  TGI: 11.5 µM
[9]
  GI50: < 0.01 µM
  TGI: > 100 µM
[10]
  GI50: < 0.01 µM
  TGI: < 0.01 µM
[11]
  GI50: < 0.01 µM
  TGI: 28.5 µM
[12]
  GI50: < 0.01 µM
  TGI: > 100 µM
[13]
  GI50: < 0.01 µM
  TGI: 26.8 µM
[14]
  GI50: < 0.01 µM
  TGI: 17.3 µM
[15]
  GI50: < 0.01 µM
  TGI: 22 µM
[16]
  GI50: < 0.01 µM
  TGI: 26.1 µM
[17]
  GI50: < 0.01 µM
  TGI: 11.8 µM
[18]
  GI50: < 0.01 µM
  TGI: < 0.01 µM
[19]
  GI50: < 0.01 µM
  TGI: < 0.01 µM
[20]
  GI50: 0.242 µM
  TGI: 38.8 µM
[21]
  GI50: < 0.01 µM
  TGI: 11.8 µM
[22]
  GI50: < 0.01 µM
  TGI: 56.5 µM
[23]
  GI50: < 0.01 µM
  TGI: 19.5 µM
[24]
  GI50: < 0.01 µM
  TGI: 46.2 µM
[25]
  GI50: < 0.01 µM
  TGI: 12.9 µM
[26]
  GI50: < 0.01 µM
  TGI: 15.4 µM
[27]
  GI50: < 0.01 µM
  TGI: 14.5 µM
[28]
  GI50: < 0.01 µM
  TGI: 14.7 µM
[29]
  GI50: < 0.01 µM
  TGI: < 0.01 µM
[30]
  GI50: < 0.01 µM
  TGI: 3.53 µM
[31]
  GI50: < 0.01 µM
  TGI: > 100 µM
[32]
  GI50: < 0.01 µM
  TGI: 10.6 µM
[33]
  GI50: < 0.01 µM
  TGI: 44.8 µM
[34]
  GI50: 3.59 µM
  TGI: 21.3 µM
[35]
  GI50: < 0.01 µM
  TGI: 2.06 µM
[36]
  GI50: < 0.01 µM
  TGI: 11.4 µM
[37]
  GI50: < 0.01 µM
  TGI: 24.8 µM
[38]
  GI50: < 0.01 µM
  TGI: < 0.01 µM
[39]
  GI50: < 0.01 µM
  TGI: 22.3 µM
[40]
  GI50: < 0.01 µM
  TGI: < 0.01 µM
[41]
  GI50: < 0.01 µM
  TGI: 10.1 µM
[42]
  GI50: < 0.01 µM
  TGI: 17.8 µM
[43]
  GI50: < 0.01 µM
  TGI: 11.8 µM
[44]
  GI50: < 0.01 µM
  TGI: 21.7 µM
[45]
  GI50: < 0.01 µM
  TGI: 10.8 µM
[46]
  GI50: < 0.01 µM
  TGI: < 0.01 µM
[47]
  GI50: < 0.01 µM
  TGI: 3.22 µM
[48]
  GI50: < 0.01 µM
  TGI: 1.16 µM
[49]
  GI50: < 0.01 µM
  TGI: > 100 µM
[50]
  GI50: < 0.01 µM
  TGI: 23.7 µM
[51]
  GI50: < 0.01 µM
  TGI: 11.5 µM

## Cc1oncc1NC1=CC(=O)C(=O)c2ccccc21
[2]
  TGI: 17 µM
[3]
  TGI: 34.6 µM
[4]
  TGI: 37.8 µM
[5]
  TGI: 8.69 µM
[6]
  TGI: 29.2 µM
[7]
  TGI: 8.4 µM
[8]
  TGI: 32.2 µM
[9]
  TGI: 31.7 µM
[10]
  TGI: 37.1 µM
[11]
  TGI: 24 µM
[12]
  TGI: 11.9 µM
[13]
  TGI: 30.3 µM
[14]
  TGI: 27.9 µM
[52]
  TGI: 7.06 µM
[15]
  TGI: 17.1 µM
[16]
  TGI: 27.2 µM
[17]
  TGI: 42.1 µM
[18]
  TGI: 19.2 µM
[19]
  TGI: 15.1 µM
[20]
  TGI: 26.5 µM
[21]
  TGI: 12.2 µM
[22]
  TGI: 12.9 µM
[23]
  TGI: 15.7 µM
[24]
  TGI: 46.8 µM
[25]
  TGI: 9.63 µM
[26]
  TGI: 11.9 µM
[53]
  TGI: 9.34 µM
[27]
  TGI: 17.1 µM
[28]
  TGI: 4.97 µM
[29]
  TGI: 3.51 µM
[30]
  TGI: 17.6 µM
[54]
  TGI: 27.5 µM
[31]
  TGI: 27 µM
[32]
  TGI: 25 µM
[33]
  TGI: 32.8 µM
[34]
  TGI: 11.5 µM
[35]
  TGI: 20.3 µM
[36]
  TGI: 33.4 µM
[37]
  TGI: 22.6 µM
[38]
  TGI: > 100 µM
[39]
  TGI: 71.5 µM
[40]
  TGI: 17.9 µM
[41]
  TGI: 11.6 µM
[42]
  TGI: 10 µM
[43]
  TGI: 10.5 µM
[44]
  TGI: 16.7 µM
[45]
  TGI: 36.8 µM
[55]
  TGI: 32.5 µM
[56]
  TGI: 45.2 µM
[46]
  TGI: 3.68 µM
[47]
  TGI: 20.6 µM
[48]
  TGI: 10.6 µM
[49]
  TGI: 15 µM
[57]
  TGI: 39.4 µM
[50]
  TGI: 11.8 µM
[51]
  TGI: 17.3 µM
